These results are taken from PubChem BioAssay (NCI).

Each structure is given as a SMILES string.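 Cultured in 96-well plates, cells were exposed to test compound for 48 hours across five concentrations. TGI marks complete inhibition of growth.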

What all share (assay): growth of human tumour cells (NCI), 48 h
Experiment [1] deals with CCRF-CEM leukemia.
The test system of experiment [2] is COLO 205 colon.
The test system of experiment [3] is DU-145 prostate.
Experiment [4] deals with EKVX NSCLC.
Experiment [5] deals with HCC-2998 colon.
Experiment [6] relates to HS 578T breast.
Experiment [7] relates to IGROV1 ovarian.
Experiment [8] relates to KM12 colon.
The subject of experiment [9] is MALME-3M melanoma.
The subject of experiment [10] is MDA-MB-231 breast.
Experiment [11] relates to NCI-H522 lung.
In experiment [12] the test system is OVCAR-5 ovarian.
The test system of experiment [13] is OVCAR-8 ovarian.
The subject of experiment [14] is SF-295 CNS.
In experiment [15] the test system is SK-MEL-5 melanoma.
Experiment [16] has as its system SR leukemia.
In experiment [17] the test system is U251 CNS.
Experiment [18] deals with HL-60(TB) leukemia.
Experiment [19] concerns MDA-N.
For experiment [20], the system named is T-47D breast.

`C/C1=C\CC[C@@]2(C)O[C@@H]2[C@H]2OC(=O)C(C)C2C[C@H]1O` (some centres not stated): the TGI in experiment [1], in experiment [2], in experiment [3], in experiment [4], in experiment [5] and in experiment [6] was above 100 µM each time. The TGI in experiment [7], in experiment [8], in experiment [9], in [10], in [11] and in [12] was above 100 µM throughout. Moreover, the TGI in experiment [13], in experiment [14], in experiment [15], in experiment [16] and in experiment [17] was above 100 µM each time.
Regarding `CCOC(=O)C1C(c2ccc([N+](=O)[O-])cc2)NC(c2ccc([N+](=O)[O-])cc2)C(C(=O)OC)S1(=O)=O` (configuration not stated), the TGI in experiment [1], in experiment [2], in [4], in [5], in [18] and in [7] was above 100 µM in each case. In addition, the TGI in [8], in experiment [9], in experiment [11], in [12], in experiment [13] and in experiment [14] was above 100 µM each time. Further, the TGI in [16] and in experiment [17] was above 100 µM throughout.
With `CC(C)N1CCCOC(c2ccc([N+](=O)[O-])cc2)O1` (configuration not stated), the TGI in experiment [1], in [2], in [3], in [4], in experiment [5] and in [7] was above 100 µM throughout. For the same compound, the TGI in experiment [8], in [9], in experiment [10], in experiment [19], in experiment [11] and in experiment [12] was above 100 µM in each case. For the same compound, the TGI in experiment [13], in experiment [14], in experiment [15], in [16], in experiment [20] and in experiment [17] was above 100 µM each time.
Turning to `O=C(O)CCSc1nnc(COc2ccc(Cl)cc2)n1-c1ccccc1`, the TGI in experiment [1], in [2], in experiment [3], in experiment [4], in experiment [5] and in experiment [18] was above 100 µM each time. Besides, the TGI in experiment [7], in experiment [8], in experiment [9], in experiment [10], in [19] and in experiment [11] was above 100 µM each time. In addition, the TGI in experiment [12], in [13], in experiment [14], in experiment [20] and in experiment [17] was above 100 µM each time.
For the compound `O=C(/C=C/c1cccs1)c1ccc(C(=O)/C=C/c2cccs2)cc1`, the TGI in experiment [2], in experiment [3], in experiment [4], in [5], in experiment [6] and in experiment [7] was above 100 µM each time. Besides, the TGI in experiment [8], in [9], in [10], in experiment [11], in experiment [12] and in experiment [13] was above 100 µM each time. Besides, the TGI in experiment [14], in experiment [16], in [20] and in [17] was above 100 µM throughout.
As to `Nc1ccc(C(=O)NN2C(=O)C(Cl)C2c2ccccc2O)cc1` (configuration not stated), the TGI in [1] is above 100 µM; in experiment [2], above 100 µM; in experiment [4], above 100 µM; in experiment [5], 98.5 µM; in experiment [18], 48 µM; in [7], above 100 µM. Besides, the TGI in experiment [8], in experiment [9], in [11], in experiment [12], in experiment [13] and in experiment [14] was above 100 µM throughout. Also, the TGI in experiment [15] and in experiment [17] was above 100 µM each time.
For the compound `CSC(=N)N1N=C2c3ccccc3CC[C@@H]2[C@@H]1c1ccccc1`, the TGI in experiment [1] was determined as 65 µM; in experiment [2] it was 26.6 µM; in experiment [4] it was 44.4 µM; in experiment [5] it was 29.4 µM; in experiment [18], 34.6 µM; in experiment [7], 34.8 µM. The TGI in [8] was 27.9 µM; in [9], 25.9 µM; in [11], 27.8 µM; in experiment [12], 34.7 µM; in experiment [13], 29.1 µM; in experiment [14], 27.9 µM. Further, the TGI was 30.9 µM in experiment [16] and 31 µM in experiment [17].
Regarding `CC(Oc1ccc(Cl)cc1Cl)C(=O)NN1C(=O)CSC1c1ccc(Cl)cc1` (configuration not stated), the TGI in [2] was above 100 µM; in experiment [3] it was above 100 µM; in experiment [4] it was above 100 µM; in experiment [5] it was above 100 µM; in experiment [18], 84.7 µM; in experiment [6] it was above 100 µM. In addition, the TGI in [7] is above 100 µM; in experiment [8], above 100 µM; in [10], 97.4 µM; in experiment [11], above 100 µM; in [12], above 100 µM; in [13] it was above 100 µM. Further, the TGI in experiment [14] is above 100 µM; in [15], above 100 µM; in [16], 41.3 µM; in experiment [20] it was above 100 µM; in experiment [17], above 100 µM.
Regarding `COC(=O)N/N=C(\C)C(CN1CCOCC1)C(c1ccccc1)c1cc2ccccc2oc1=O` (configuration not stated), the TGI is above 100 µM in [1]; above 100 µM in experiment [2]; above 100 µM in experiment [3]; above 100 µM in [4]; above 100 µM in experiment [5]; 85.3 µM in experiment [18]. Further, the TGI in experiment [6], in experiment [7], in experiment [8], in experiment [9], in [10] and in experiment [11] was above 100 µM in each case. The TGI in experiment [12] was above 100 µM; in experiment [13] it was above 100 µM; in [14], above 100 µM; in [15], above 100 µM; in experiment [16] it was 56.5 µM; in experiment [20], above 100 µM. In addition, the TGI in experiment [17] is above 100 µM.
In the case of `COC(=O)c1cc(C#N)[nH]c1-c1cccs1`, the TGI in [1], in experiment [2], in experiment [3], in experiment [4], in experiment [5] and in experiment [8] was above 100 µM each time. For the same compound, the TGI in [10], in experiment [19], in experiment [11], in [12], in experiment [13] and in experiment [14] was above 100 µM in each case. In addition, the TGI in [16], in [20] and in experiment [17] was above 100 µM throughout.
On to `CCCCCCCCCCCCNC1(C)CNCCCNCCNCCCNC1`, for which the TGI in experiment [2] was found to be 3.2 µM; in [4], 12.8 µM; in experiment [5] it was 3.22 µM; in experiment [7], 2.35 µM; in [8] it was 2.89 µM; in experiment [9] it was 3.47 µM. Besides, the TGI in experiment [11] amounted to 3.22 µM; in experiment [12], 4.54 µM; in experiment [13], 2.92 µM; in experiment [14], 2.88 µM; in experiment [15] it was 3.06 µM; in experiment [16] it was 3.58 µM. Moreover, the TGI in [17] was found to be 2.3 µM.
`CNC(=O)CN(CC(N)=O)C(=O)NC`: the TGI in [1], in [2], in [4], in [5], in experiment [18] and in [7] was above 100 µM in each case. For the same compound, the TGI in experiment [8], in experiment [9], in experiment [11], in [12], in experiment [13] and in [14] was above 100 µM in each case. Also, the TGI in experiment [15], in experiment [16] and in experiment [17] was above 100 µM each time.
Consider `COc1cc(CCCC(O)COc2cccc3c2C2(O)CCCCCC32)cc(OC)c1` (configuration not stated), for which the TGI is above 100 µM in experiment [1]; 5.4 µM in experiment [2]; 30.6 µM in experiment [4]; 17.9 µM in experiment [5]; 45.9 µM in [18]; 28.5 µM in [7]. Moreover, the TGI stood at 34.5 µM in [8]; 31.8 µM in [9]; 42.1 µM in experiment [11]; 31.5 µM in [12]; 37.8 µM in experiment [13]; 30.5 µM in [14]. In addition, the TGI was determined as 20.5 µM in [15] and 32.9 µM in experiment [17].
On to `O=S1(=O)OCCCOS(=O)(=O)C1Br`, for which the TGI in [2], in experiment [3], in [4], in experiment [5], in [8] and in experiment [9] was above 100 µM each time. Moreover, the TGI in experiment [19], in experiment [11], in experiment [12], in [13], in experiment [14] and in [15] was above 100 µM throughout. The TGI in experiment [16], in experiment [20] and in experiment [17] was above 100 µM in each case.
As to `O=S1c2ccc(Cl)cc2CC(SSC2Cc3cc(Cl)ccc3S(=O)c3ccccc32)c2ccccc21` (configuration not stated), the TGI in experiment [1], in [2], in experiment [4], in experiment [5], in experiment [18] and in experiment [7] was above 100 µM each time. For the same compound, the TGI in experiment [8], in [9], in experiment [11], in experiment [12], in experiment [13] and in experiment [14] was above 100 µM each time. Also, the TGI in experiment [15] and in experiment [17] was above 100 µM each time.
On to `O=C1/C(=C/c2ccccc2)CCCC/C1=C\c1ccccc1`, for which the TGI in experiment [2], in [4], in [5], in experiment [7], in experiment [8] and in experiment [9] was above 100 µM in each case. In addition, the TGI in experiment [12] is 97.1 µM; in [13] it was above 100 µM; in experiment [14] it was above 100 µM; in experiment [15] it was 70.4 µM; in experiment [16] it was above 100 µM; in experiment [17], above 100 µM.
As for `Cc1cc(NCC2CC/C(=C\C=C\c3ccccc3)C2=O)no1` (configuration not stated), the TGI in experiment [1], in [2], in experiment [3], in [4], in experiment [5] and in [18] was above 100 µM in each case. Also, the TGI in [6], in experiment [7], in experiment [8], in experiment [9], in [10] and in experiment [11] was above 100 µM each time. Moreover, the TGI in [12], in experiment [13], in experiment [14], in experiment [15], in experiment [16] and in experiment [20] was above 100 µM throughout. Besides, in experiment [17], the TGI is above 100 µM.
For `COC(=O)/C(=C/CC(N=C(c1ccccc1)c1ccccc1)C(=O)OC)N=C(c1ccccc1)c1ccccc1` (configuration not stated), the TGI in experiment [1], in experiment [2], in experiment [4], in [5], in [18] and in [7] was above 100 µM throughout. The TGI in experiment [8], in experiment [9], in [11], in experiment [13], in [14] and in experiment [15] was above 100 µM in each case. Moreover, the TGI in experiment [16] and in experiment [17] was above 100 µM each time.
